Series [1] has as its system Lgr5-positive large intestine CSCs. In words: Change in Lgr5 expression of Lgr5-positive CSCs after chemotherapeutic treatment (flow cytometry / immunocytochemistry). As to conditions: for Lgr5 state of drug-resistant cells arising from Lgr5-positive CSCs: three-day exposure, 10 μg/ml (FIGS. 11, 32, 25). Type of series: cell-based, human. Here is the method:
Large intestine CSCs were incubated with mouse anti-human Lgr5 antibody (2T15E-2) and then with […] rat anti-mouse IgG antibody (Invitrogen) to stain Lgr5. The aldehyde dehydrogenase activity was measured using the AldeFluor Kit (Stemcell Technologies). Mouse cells were discriminated from human large intestine CSCs by staining with anti-mouse MHC class I antibody (Abcam), and PE- or APC-labeled goat […] IgG2a antibody (BioLegend). Dead cells were also removed using the 7-AAD Viability Dye (Beckman Coulter).
In addition, to assess whether Lgr5-negative large intestine CSCs undergo a transition into an Lgr5-positive state, the present inventors cultured adherently Lgr5-negative large intestine CSCs prepared via irinotecan treatment again in a serum-free stem cell culture medium. […] On the other hand, when Lgr5-positive adherent large intestine CSCs were cultured in an ultra-low adherent plate, the present inventors observed that some of the cells halted their growth and formed a spheroid-like structure and that the Lgr5 mRNA level was very low (FIGS. 12 and 33). The transition from the Lgr5-positive to Lgr5-negative state (and the reverse) was also confirmed by observations using a single cell in culture. […]
Using a stem cell medium, Lgr5-positive adherent cells were seeded at 3×10^5 cells/well in a 6-well plate (BD, Cat. No. 353046). […] After three-day culture, irinotecan-resistant cells were detected. […]
FITC-labeled mouse mAb to human CD326 (EpCAM), PE-labeled mouse mAb to human CD133/1 (AC133), PE-labeled mouse mAb to human CD44, PE-labeled mouse mAb to human CD166, PE-labeled mouse mAb to human CD24, PE-labeled mouse mAb to human CD26, or PE-labeled mouse mAb to human CD29. […] The ALDH activity was detected using AldeFluor Kit according to the procedure recommended by the manufacturer. […] Cells negative for 7-AAD Viability Dye were analyzed for cancer stem cell markers.
In general terms: Flow cytometry measures light scatter and fluorescence of single cells or particles in a stream.

The test system is the same in series [2]. In words: Cell proliferation / chemosensitivity assay (Cell Counting Kit-8), adherent CSCs. Type of series: cell-based, human. Here is the method:
(§1) Floating and adherent CSCs were plated at about 100 and 1×10^4 cells/well in 96-well plates, respectively. On days 0 and 3, viable cell counts were determined by the Cell Counting Kit-8 Assay (Doujindo) according to the manufacturer's protocol. Average absorbance on day 0 was taken as 100%. For chemosensitivity assay, floating and adherent CSCs were plated at about 100 and 1×10^4 cells/well in 96-well plates, respectively. […] After three days of culture in the presence of the agents, the Cell Counting Kit-8 was added to the cells. The average absorbance of cells exposed to DMSO or medium alone was taken as 100%. All experiments were performed in triplicate.
In general terms: Tetrazolium assays rely on reduction of a dye to a coloured formazan, in cell work by metabolically active cells.

In series [3] the test system is Lgr5-negative large intestine CSCs. In words: Cell proliferation / chemosensitivity assay (Cell Counting Kit-8), Lgr5-negative CSCs. It counts as cell-based, human. As to conditions: for proliferation and survival of Lgr5-negative large intestine CSCs: 10 μg/ml, three days (FIGS. 10 and 24); for percentage of viable cells relative to non-treated control cells: Lgr5-negative CSCs (PLR59 and PLR123), three days, concentration series (FIG. 47). Here is the method: as §1

In series [4] the test system is tumors derived from Lgr5-positive CSCs (PLR123). The experiment in a line: Irinotecan treatment of NOG mice bearing tumors derived from Lgr5-positive CSCs. Type of series: in vivo. Here is the method:
Mice bearing tumors derived from Lgr5-positive CSCs (PLR123) were treated with irinotecan, and their tumors were observed. Irinotecan or vehicle was administered to mice at days 12, 15, and 18 after tumor grafting. Scale bar represents 25 μm.
FIG. 55 Irinotecan was administered at a dose of 120 mg/kg/day to NOG mice at days 12, 15, and 18 after grafting tumors derived from Lgr5-positive CSCs (PLR123). This figure is a graph showing tumor volumes in control mice administered with vehicle (closed diamond) and mice administered with irinotecan (closed square or triangle). Each value represents mean+standard deviation.
FIG. 56 is a graph showing the numbers of Lgr5-positive and HLA-DMA-positive cells in xenograft tumor tissues. Thin sections of tissues were treated with Lgr5 antibody and HLA-DMA antibody, and then the numbers of Lgr5-positive and HLA-DMA-positive cells were measured. Values represent the total numbers of cells counted for respective groups (n=3).
To probe the possibility of in vivo transition to a growth inhibitor-resistant state, irinotecan was administered at the maximum tolerated dose (MTD) (120 mg/kg) into the peritoneal cavities of NOG mice bearing tumors derived from Lgr5-positive CSCs. […] By contrast, in vehicle-treated control mice, about one third of cancer cells were positive for Lgr5 in both ductal and budding areas (FIG. 54). Both Lgr5-positive cells and HLA-DMA-positive and Lgr5-negative cells were positive for EREG, and were identified to be CSCs (FIG. 54). After irinotecan treatment, Lgr5-positive cells appeared again (FIG. 54).

The test system of series [5] is irinotecan-non-treated PLR123. In words: Flow cytometry (FCM) binding activity of commercially available antibodies to cell-surface antigens. As to conditions: with antibody. Set-up: species or system human. Here is the method: (§2) The present inventors tested whether an anti-tumor effect can be expected with target therapy using a membrane protein expressed at a high level as the target in irinotecan-treated or non-treated PLR59 and PLR123. Commercially available antibodies shown in Table 12 were assessed by flow cytometry (FCM) for the binding activity to antigens expressed on the cell surface of irinotecan-treated or non-treated PLR59 or PLR123.

Series [6] has as its system irinotecan-non-treated PLR59. Described as above. Also on record: species or system human. As to conditions: with antibody. Here is the method:
as §2

For series [7], the system named is irinotecan-non-treated PLR123. In words: Internalization activity / anti-tumor effect with Mab-ZAP or Rat-ZAP (CellTiter-Glo). It counts as cell-based, human. The conditions noted are these: with Mab-ZAP or Rat-ZAP 1 μg/ml, 72 hours. Here is the method:
(§3) Mab-ZAP and Rat-ZAP are anti-mouse IgG antibody and anti-rat IgG antibody, respectively, conjugated with saporin, a toxin that inhibits protein synthesis (Advanced Targeting Systems). To assess the activity of internalization into irinotecan-non-treated cells, PLR59 and PLR123 cells were seeded at a cell density of 30000 cells/80 μl/well to respective wells of a 96-well plate. Following day, each antibody solution was added at a final concentration of 0.01, 0.1, or 1 μg/ml to the respective wells. Then, Mab-ZAP or Rat-ZAP was added at a final concentration 1 μg/ml to the respective wells, and the plate was incubated at 37° C. for 72 hours in a CO2 incubator. To assess the activity of internalization into irinotecan-treated cells, PLR59 and PLR123 cells were seeded in a 96-well plate, and irinotecan was added at a final concentration of 15 μM to each well. The plate was incubated at 37° C. for 72 hours in a CO2 incubator. Various antibodies were assessed for the activity of internalization to cells cultured as described above in the presence or absence of irinotecan. For assay, the various antibodies were each assessed for the internalization activity into cells contained in each well where the medium was replaced with the same irinotecan-free medium as used for irinotecan-non-treated cells. Seventy-two hours after addition of antibodies and Mab-ZAP or Rat-ZAP, 10 μl of 3% SDS (Nacalai Tesque) was added to each well of the plate. The cells in the plate were lysed thoroughly by stirring the plate using a plate mixer. Then, 100 μl of CellTiter-Glo™ Luminescent Cell Viability Assay (Promega) was added to each well. The mixture in each well was assayed to determine its luminescent signal. […] In Table 14, symbols, −, +, ++, and +++, represent relative values for the internalization activity when a test antibody was assayed at a concentration of […]. […] Symbols, −, +, ++, and +++, indicate that the relative value is less than 5%, 5% or more and less than 15%, 15% or more and less than 25%, and 25% or more, respectively.
A general note: Cellular ATP, detected with luciferase, serves as a proxy for viable cell number.

Series [8] concerns irinotecan-non-treated PLR59. The series is described as above. It counts as cell-based, human. The conditions noted are these: with Mab-ZAP or Rat-ZAP 1 μg/ml, 72 hours. Here is the method: as §3
Setting [9] is: 10 μg/ml, three days (FIGS. 10 and 24).
Where [10] appears, read: 120 mg/kg irinotecan (FIGS. 54 and 56).

Turning to `O=c1[nH]cc(F)c(=O)[nH]1` [5-FU, fluorouracil], the “Lgr5 state of drug-resistant cells arising from Lgr5-positive CSCs” value in series [1] is given as “negative for Lgr5”. Also, the “proliferation of Lgr5-positive large intestine CSCs” value in series [2] (setting [9]) was “significantly inhibited”. In addition, in series [3], the “proliferation and survival of Lgr5-negative large intestine CSCs” value was “did not affect”; the “percentage of viable cells relative to non-treated control cells” value is “fully resistant”.
As for `COc1cc(O)cc(O)c1C(=O)/C=C/c1ccccc1` [cardamonin], the viable cell count in series [2] (50 μM, three days of culture, Lgr5-positive CSCs (FIGS. 8 and 22)) is 70%; in series [3] (50 μM, three days of culture, Lgr5-negative CSCs (FIGS. 8 and 22)) it was “about 50%”.
Regarding `CCc1c2c(nc3ccc(OC(=O)N4CCC(N5CCCCC5)CC4)cc13)-c1cc3c(c(=O)n1C2)COC(=O)[C@]3(O)CC` [irinotecan], the tumor growth entry in series [4] (120 mg/kg (MTD) into the peritoneal cavities, days 12, 15, 18 after grafting (FIG. 55)) is listed as “inhibited almost completely”. For the same molecule, in series [4] (setting [10]), the “Lgr5-positive cells in tumor” value was “dramatic decrease”; the “number of Lgr5-negative and HLA-DMA-positive cells in tumor” value was “increased significantly”. Further, the “transition of single Lgr5-positive cells into the Lgr5-negative state” value in series [1] (single cells cultured in multi-well plate, irinotecan treatment, within three days (FIG. 49, Table 5)) is reported as “underwent a transition into the Lgr5-negative state”. For the same molecule, in series [1], the “Lgr5 state of drug-resistant cells arising from Lgr5-positive CSCs” value is reported as “negative for Lgr5”. In addition, the “proliferation of Lgr5-positive large intestine CSCs” value in series [2] (setting [9]) was “significantly inhibited”. Further, in series [3], the “proliferation and survival of Lgr5-negative large intestine CSCs” value is recorded as “did not affect”; the “percentage of viable cells relative to non-treated control cells” value is listed as “fully resistant”.
Take `Cc1cc([N+](=O)[O-])ccc1NS(=O)(=O)c1cc(Cl)ccc1Cl` [FH535]: in series [2] (50 μM, three days of culture, PLR59 and PLR123 (FIGS. 8 and 22)), the “proliferation of Lgr5-positive large intestine CSCs” value is recorded as “significantly reduced”. The “proliferation of Lgr5-negative large intestine CSCs” value in series [3] (50 μM, three days of culture (FIGS. 8 and 22)) is given as “had no effect”.

B1: EDAR (protein, listed as Homo sapiens)
chain: MAHVGDCTQTPWLPVLVVSLMCSARAEYSNCGENEYYNQTTGLCQECPPCGPGEEPYLSCGYGTKDEDYGCVPCPAEKFSKGGYQICRRHKDCEGFFRATVLTPGDMENDAECGPCLPGYYMLENRPRNIYGMVCYSCLLAPPNTKECVGATSGASANFPGTSGSSTLSPFQHAHKELSGQGHLATALIIAMSTIFIMAIAIVLIIMFYILKTKPSAPACCTSHPGKSVEAQVSKDEEKKEAPDNVVMFSEKDEFEKLTATPAKPTKSENDASSENEQLLSRSVDSDEEPAPDKQGSPELCLLSLVHLAREKSATSNKSAGIQSRRKKILDVYANVCGVVEGLSPTELPFDCLEKTSRMLSSTYNSEKAVVKTWRHLAESFGLKRDEIGGMTDGMQLFDRISTAGYSIPELLTKLVQIERLDAVESLCADILEWAGVVPPASQPHAAS
With B1, the “binding activity by flow cytometry (FCM), Antibody +” value is 61 in series [5] and 37 in series [6]. Further, the internalization activity level entry was “− (less than 5%)” in series [7]; “++ (15% or more and less than 25%)” in series [8].

B2: CD70 (protein, listed as Homo sapiens)
chain: MPEEGSGCSVRRRPYGCVLRAALVPLVAGLVICLVVCIQRFAQAQQQLPLESLGWDVAELQLNHTGPQQDPRLYWQGGPALGRSFLHGPELDKGQLRIHRDGIYMVHIQVTLAICSSTTASRHHPTTLAVGICSPASRSISLLRLSFHQGCTIASQRLTPLARGDTLCTNLTGTLLPSRNTDETFFGVQWVRP
On to B2, for which the “binding activity by flow cytometry (FCM), Antibody +” value in series [5] was 1843; in series [6], 1177. Further, the internalization activity level result in series [7] and in series [8] was “+++ (25% or more)” in each case.
